The values below are quoted from earlier work in US20220304303A1, “INSECT REPELLENT PATCHES” (The Natural Patch Company Pty Ltd, priority 2021, published 2022).

The conditions of this data set: products containing between 10% and 30% DEET, used as directed.

Regarding `CCN(CC)C(=O)c1cccc(C)c1` [DEET, Diethyltoluamide], the “safety in use on children and adults” value is given as “safe to use on children, as well as adults”.
